Tested on: MPTP-lesioned marmoset model of Parkinson's disease
Assay: L-DOPA-induced fluctuations in locomotion in the MPTP-lesioned marmoset model of Parkinson's disease
Format: in vivo, Marmosets (Callithrix jacchus)
Details: 8-OH PIPAT 10 mg/kg co-administered with L-DOPA 8 mg/kg, locomotion assessed every 5 minutes over six hours
Method: The effect of the 5-HT1a-receptor agonist 8-OH-PIPAT on L-DOPA-induced fluctuations in locomotion was assessed in the MPTP-lesioned marmoset model of Parkinson's disease.
Marmosets (Callithrix jacchus) (bred in a closed colony at the University of Manchester) are rendered parkinsonian by subcutaneous injection of 2 mg kg^−1 MPTP for 5 consecutive days. The marmosets are allowed to recover for a minimum of 10 weeks until their parkinsonism becomes stable.
A quantitative assessment of locomotor activity was assessed every 5 minutes for the duration of the experiment using computer-based activity monitors.
Locomotion was measured over a six hour period using Benwick activity monitors. These locomotion monitors consist of a visually-shielded open-field arena, the perimeter of which is surrounded by a series of infra-red beams arranged at 5 cm intervals. PC-based software (Amlogger) assesses the number of beams broken. The number of beams broken as part of a locomotor movement (mobile counts) was measured.
Marmosets were split into two groups. The first group received L-DOPA (8 mg/kg) and vehicle for 8-OH PIPAT only whereas the second group received L-DOPA (8 mg/kg) and 8-OH PIPAT (10 mg/kg).

## CCCN(C/C=C/I)C1CCc2cccc(O)c2C1 (racemic) [8-OH-PIPAT, (RS)-trans-8-hydroxy-2-[N-n-propyl-N-(3′-iodo-2′-propenyl)amino]tetralin]
  L-DOPA-stimulated 'on-time' (locomotor activity, mobile counts): increase in L-DOPA-stimulated ‘on-time’
